From US11311538B2, “Compositions and methods for targeting cancers” (YALE UNIVERSITY, priority 2018, dated 2022)

System: shSDHB-expressing HEK293FT tumor xenografts
Assay: Tumor growth delay assay, shSDHB HEK293FT xenografts
Type: in vivo, mouse
Description: In vivo efficacy studies: HEK293FT xenografts. Female athymic nu/nu mice (Hsd:Athymic Nude-Foxnlnu, Envigo) were used for all in vivo xenograft studies. Mice were quarantined for at least 1 week before experimental manipulation. Tumors were formed using shRNA-expressing versions of the tumorigenic human embryonic kidney cell-derived line, HEK293FT. HEK293FT is a subline of HEK293 cells that has been transformed by expression of SV40 Large T-antigen. […], or shCTRL (non-targeted control) expressing HEK293FT cells were implanted subcutaneously (5×10^6 cells in 0.1 cc PBS) in the right flank of nude mice. Two efficacy studies were conducted. In one, mice were randomized into treatment and non-treated groups (10 mice/group) at day 3, with treatment initiation 4 days post implant. In a second independent in vivo efficacy study, mice were injected as above with 10 mice per group, and treatment was started only once the tumor volumes reached […]. For both studies, mice were visually observed daily and tumors were measured three times per week by calipers to determine tumor volume using the formula: Volume=L×W×W×0.532. Mice were fed with a grain based rodent diet containing Doxycycline at 200 mg/kg (Bioserv, Catalog #S3888). BMN-673 was solubilized in DMSO and diluted with PBS containing 10% dimethylacetamide (Sigma-Aldrich) and 6% Solutol (Sigma). BMN-673 (0.5 mg/kg, 0.2 cc), or vehicle (0.2 cc) was administered by oral gavage once daily for the duration of the experiment. Mean (geometric) tumor volume (mm^3) was plotted over time to monitor tumor growth. P-values were determined by ANOVA with repeated measures. In vivo efficacy studies: UOK 262 xenografts. Female athymic nu/nu mice (Hsd:Athymic Nude-Foxnlnu, Envigo) were used for all in vivo xenograft studies. Mice were quarantined for at least 1 week before experimental manipulation. UOK 262 cells were implanted subcutaneously using 5×10^6 cells in 0.1 cc PBS mixed with 0.1 cc of Corning Matrigel Matrix (Cat. No. 354234) per animal. Mice were randomized at day 3 day into two groups (n=10/group). […]

Cn1ncnc1[C@H]1c2n[nH]c(=O)c3cc(F)cc(c23)N[C@@H]1c1ccc(F)cc1 [BMN-673, BMN-673 (Talazoparib)]
tumor growth vs vehicle, SDH-deficient tumors (treatment after tumors reached 95-150 mm^3, 0.5 mg/kg oral gavage once daily (FIG. 4G)): inhibited the growth | tumor growth vs vehicle, shSDHB tumors (treatment beginning four days after implantation, 0.5 mg/kg oral gavage once daily (FIG. 4D)): robust suppression of tumor growth | growth of SDHB-deficient tumors (two separate sets of in vivo efficacy studies, 0.5 mg/kg oral gavage once daily): significantly inhibited the growth
